We go through eleven molecules from patent US20240327417A1, “HETEROCYCLIC COMPOUNDS” (BeiGene Switzerland GmbH, priority 2021, published 2024).

In experiment [1] the target is T1, Full length DGKζ (in-house protein M1-V929) (Homo sapiens, UniProt Q13574).
T1 construct: His (N); TEV cleavage site (N); made in house; host or cells: Sf9 insect cells (baculovirus, Bac-to-Bac)
Nature of the experiment: Biochemical DGK IC50 assay (ADP-Glo, lipid micelle substrate), DGKζ. Conditions: 0.5 nM enzyme, 140 μM ATP, 80 μM DAG, 1 hour preincubation, 1 hour reaction, room temperature, read-out: IC50s for DGKζ. The method in brief:
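In-house full-length human DGKζ, baculovirus-expressed in Sf9 cells, was assayed with a DAG/PS lipid micelle substrate at room temperature. Buffer was 50 mM HEPES, 10 mM MgCl2, 0.01% BSA, 0.1 mM Na3VO4, 0.005% Tween-20, 0.01 mM CaCl2, with final compound 1.55˜10000 nM or 23.3˜150000 nM.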
A general note: ADP-Glo turns the ADP formed in a reaction into a luminescent signal.

Experiment [2] concerns the target T2, Full length DGKα (D21-10BG, SignalChem) (Homo sapiens, UniProt P23743).
T2 construct: Full length DGKα (D21-10BG, SignalChem); purchased SignalChem D21-10BG
The experiment can be described thus: Biochemical DGK IC50 assay (ADP-Glo, lipid micelle substrate), DGKα. Conditions: 7.5 nM enzyme, 140 μM ATP, 80 μM DAG, 1 hour preincubation, 1 hour reaction, room temperature, read-out: IC50s for DGKα. A digest of the protocol: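 Full-length enzyme was assayed by ADP-Glo on DAG/PS lipid micelles at room temperature in HEPES/MgCl2/CaCl2 buffer with BSA, Na3VO4 and Tween-20, using a 1 h reaction and luminescence read-out.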

Some results are limits rather than exact numbers.

T1 sequence (Q13574 1-929 isoform Q13574-4): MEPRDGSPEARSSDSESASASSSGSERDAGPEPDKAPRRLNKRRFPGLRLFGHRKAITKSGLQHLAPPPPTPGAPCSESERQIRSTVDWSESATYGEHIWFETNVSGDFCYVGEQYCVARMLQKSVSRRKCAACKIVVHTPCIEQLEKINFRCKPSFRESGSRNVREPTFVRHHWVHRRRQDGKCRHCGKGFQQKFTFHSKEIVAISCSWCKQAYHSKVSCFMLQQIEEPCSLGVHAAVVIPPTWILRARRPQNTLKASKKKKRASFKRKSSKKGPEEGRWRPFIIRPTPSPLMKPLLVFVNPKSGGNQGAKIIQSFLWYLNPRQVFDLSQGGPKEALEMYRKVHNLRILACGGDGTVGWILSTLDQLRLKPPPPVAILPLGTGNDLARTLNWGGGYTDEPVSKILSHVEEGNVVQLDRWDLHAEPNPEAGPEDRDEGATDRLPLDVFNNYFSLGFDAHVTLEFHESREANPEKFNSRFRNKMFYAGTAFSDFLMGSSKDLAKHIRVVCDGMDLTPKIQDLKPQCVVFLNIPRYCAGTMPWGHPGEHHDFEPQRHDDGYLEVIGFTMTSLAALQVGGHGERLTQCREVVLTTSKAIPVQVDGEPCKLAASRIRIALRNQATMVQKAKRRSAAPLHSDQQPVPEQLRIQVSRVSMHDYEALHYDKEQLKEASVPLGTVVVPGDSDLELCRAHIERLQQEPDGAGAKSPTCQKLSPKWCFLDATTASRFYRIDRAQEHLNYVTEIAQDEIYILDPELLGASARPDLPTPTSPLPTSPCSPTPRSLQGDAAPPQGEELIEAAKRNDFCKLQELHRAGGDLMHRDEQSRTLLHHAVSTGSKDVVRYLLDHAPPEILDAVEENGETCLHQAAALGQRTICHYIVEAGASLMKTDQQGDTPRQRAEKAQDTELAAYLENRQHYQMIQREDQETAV
T2 sequence (P23743 whole entry): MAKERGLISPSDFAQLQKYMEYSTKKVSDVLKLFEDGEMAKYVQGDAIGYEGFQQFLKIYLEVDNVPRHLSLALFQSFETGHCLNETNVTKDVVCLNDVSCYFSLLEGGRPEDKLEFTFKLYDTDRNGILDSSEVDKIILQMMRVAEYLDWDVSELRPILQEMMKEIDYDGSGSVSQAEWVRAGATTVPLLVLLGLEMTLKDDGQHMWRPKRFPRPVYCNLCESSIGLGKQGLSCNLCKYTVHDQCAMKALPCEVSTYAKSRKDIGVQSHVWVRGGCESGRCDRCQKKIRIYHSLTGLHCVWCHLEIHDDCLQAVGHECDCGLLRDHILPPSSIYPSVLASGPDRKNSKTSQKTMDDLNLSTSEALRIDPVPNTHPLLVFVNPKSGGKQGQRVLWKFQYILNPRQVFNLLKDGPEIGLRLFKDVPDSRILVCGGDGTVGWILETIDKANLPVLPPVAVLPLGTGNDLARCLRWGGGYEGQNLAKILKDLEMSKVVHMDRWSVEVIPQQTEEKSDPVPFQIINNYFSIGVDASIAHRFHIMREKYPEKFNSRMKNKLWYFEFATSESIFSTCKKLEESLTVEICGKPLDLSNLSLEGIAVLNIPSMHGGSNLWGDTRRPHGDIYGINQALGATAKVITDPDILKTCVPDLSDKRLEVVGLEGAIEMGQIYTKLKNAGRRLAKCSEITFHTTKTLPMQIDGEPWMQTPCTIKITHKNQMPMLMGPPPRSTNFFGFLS

Consider `CC[C@H]1CN(C(C)c2ccc3nc(C)sc3n2)[C@H](CC)CN1c1cc(=O)n(C)n2cc(C=NOC)nc12` (single isomer, unassigned) [Compound A124a], for which the IC50 is greater than 10 µM in experiment [1] and 2 µM in experiment [2].

With `CC[C@H]1CN(C(C)c2ccc3nc(C)sc3n2)[C@H](CC)CN1c1cc(=O)n(C)n2cc(C=NOC)nc12` (single isomer, unassigned) [Compound A124bc], the IC50 in experiment [1] came out at 8.1 µM; in experiment [2] it was 0.078 µM.

Consider `CC[C@H]1CN(C(C)c2ccc3nc(C)sc3n2)[C@H](CC)CN1c1cc(=O)n(C)n2cc(C=NOC)nc12` (single isomer, unassigned) [Compound A124d], for which the IC50 turned out to be 0.63 µM in experiment [1] and 0.0059 µM in experiment [2].

With `CC(c1ccc2nccnc2c1)N1C[C@H](C)N(c2cc(=O)n(C)n3cc(CO)nc23)C[C@H]1C` (stereo partly drawn) [Compound A3, 8-((2S,5R)-2,5-dimethyl-4-(1-(quinoxalin-6-yl)ethyl)piperazin-1-yl)-2-(hydroxymethyl)-5-methylimidazo[1,2-b]pyridazin-6(5H)-one], the values for the IC50 in experiment [1] and in experiment [2] were 9 µM and 2.3 µM, respectively.

Take `COCc1cn2c(n1)c(N1C[C@@H](C)N(C(C)c3ccc4nccnc4c3)C[C@@H]1C)cc(=O)n2C` (stereo partly drawn) [Compound A4, 8-((2S,5R)-2,5-dimethyl-4-(1-(quinoxalin-6-yl)ethyl)piperazin-1-yl)-2-(methoxymethyl)-5-methylimidazo[1,2-b]pyridazin-6(5H)-one]: the IC50 in experiment [1] was found to be 0.48 µM; in experiment [2] it was 4 µM.

`COC(C)c1cn2c(n1)c(N1C[C@@H](C)N(C(C)c3ccc4nccnc4c3)C[C@@H]1C)cc(=O)n2C` (stereo partly drawn) [Compound A5, 8-((2S,5R)-2,5-dimethyl-4-(1-(quinoxalin-6-yl)ethyl)piperazin-1-yl)-2-(1-methoxyethyl)-5-methylimidazo[1,2-b]pyridazin-6(5H)-one]: the results for the IC50 in experiment [1] and in experiment [2] were 11 µM and 22 µM, respectively.

As to `CC(C#N)c1cn2c(n1)c(N1C[C@@H](C)N(C(C)c3ccc4nccnc4c3)C[C@@H]1C)cc(=O)n2C` (stereo partly drawn) [Compound A6, 2-(8-((2S,5R)-2,5-dimethyl-4-(1-(quinoxalin-6-yl)ethyl)piperazin-1-yl)-5-methyl-6-oxo-5,6-dihydroimidazo[1,2-b]pyridazin-2-yl)propanenitrile], the IC50 in experiment [1] and in experiment [2] was greater than 10 µM in each case.

As for `CC(c1ccc2nccnc2c1)N1C[C@H](C)N(c2cc(=O)n(C)n3cc(C[S+](C)[O-])nc23)C[C@H]1C` (stereo partly drawn) [Compound A10, 8-((2S,5R)-2,5-dimethyl-4-(1-(quinoxalin-6-yl)ethyl)piperazin-1-yl)-5-methyl-2-((methylsulfinyl)methyl)imidazo[1,2-b]pyridazin-6(5H)-one], the IC50 in experiment [1] and in experiment [2] was greater than 10 µM each time.

As for `CC(c1ccc2nccnc2c1)N1C[C@H](C)N(c2cc(=O)n(C)n3cc(CS(C)(=O)=O)nc23)C[C@H]1C` (stereo partly drawn) [Compound A11, 8-((2S,5R)-2,5-dimethyl-4-(1-(quinoxalin-6-yl)ethyl)piperazin-1-yl)-5-methyl-2-((methylsulfonyl)methyl)imidazo[1,2-b]pyridazin-6(5H)-one], the IC50 in experiment [1] and in experiment [2] was greater than 10 µM throughout.

As to `CC[C@H]1CN(C(C)c2ccc3nccnc3c2)[C@H](CC)CN1c1cc(=O)[nH]n2cc(CC#N)nc12` (stereo partly drawn) [Compound A15, 2-(8-((2S,5R)-2,5-diethyl-4-(1-(quinoxalin-6-yl)ethyl)piperazin-1-yl)-6-oxo-5,6-dihydroimidazo[1,2-b]pyridazin-2-yl)acetonitrile], the figures for the IC50 in experiment [1] and in experiment [2] were 3.87 µM and 4.38 µM, respectively.

For `COc1cnc2ccc(C(C)N3C[C@H](C)N(c4cc(=O)n(C)n5cc(CC#N)nc45)C[C@H]3C)cc2n1` (stereo partly drawn) [Compound A20, 2-(8-((2S,5R)-4-(1-(3-methoxyquinoxalin-6-yl)ethyl)-2,5-dimethylpiperazin-1-yl)-5-methyl-6-oxo-5,6-dihydroimidazo[1,2-b]pyridazin-2-yl)acetonitrile], the IC50 stood at 0.018 µM in experiment [1] and 1.02 µM in experiment [2].
